In US20230079819A1, “COMPOUNDS AND USES THEREOF” (Foghorn Therapeutics Inc., priority 2019, published 2023) one finds IC50 data, which are given here for 43 compounds.

One test concerns the target T1, BRM (Homo sapiens, UniProt P51531).
T1 construct: made in house; host or cells: High Five insect cells
Briefly: ATPase catalytic activity of BRM, ADP-Glo in vitro biochemical assay. To be noted: ATPase catalytic activity, 30 nM BRM, 400 μM ATP, read-out: BRM IP50 (μM)*. On the technique in general: ADP-Glo first removes unused ATP, then detects ADP through luciferase.

Another test deals with T2, BRG-1 (Homo sapiens, UniProt P51532).
T2 construct: made in house; host or cells: High Five insect cells
T2 sequence (P51532 whole entry): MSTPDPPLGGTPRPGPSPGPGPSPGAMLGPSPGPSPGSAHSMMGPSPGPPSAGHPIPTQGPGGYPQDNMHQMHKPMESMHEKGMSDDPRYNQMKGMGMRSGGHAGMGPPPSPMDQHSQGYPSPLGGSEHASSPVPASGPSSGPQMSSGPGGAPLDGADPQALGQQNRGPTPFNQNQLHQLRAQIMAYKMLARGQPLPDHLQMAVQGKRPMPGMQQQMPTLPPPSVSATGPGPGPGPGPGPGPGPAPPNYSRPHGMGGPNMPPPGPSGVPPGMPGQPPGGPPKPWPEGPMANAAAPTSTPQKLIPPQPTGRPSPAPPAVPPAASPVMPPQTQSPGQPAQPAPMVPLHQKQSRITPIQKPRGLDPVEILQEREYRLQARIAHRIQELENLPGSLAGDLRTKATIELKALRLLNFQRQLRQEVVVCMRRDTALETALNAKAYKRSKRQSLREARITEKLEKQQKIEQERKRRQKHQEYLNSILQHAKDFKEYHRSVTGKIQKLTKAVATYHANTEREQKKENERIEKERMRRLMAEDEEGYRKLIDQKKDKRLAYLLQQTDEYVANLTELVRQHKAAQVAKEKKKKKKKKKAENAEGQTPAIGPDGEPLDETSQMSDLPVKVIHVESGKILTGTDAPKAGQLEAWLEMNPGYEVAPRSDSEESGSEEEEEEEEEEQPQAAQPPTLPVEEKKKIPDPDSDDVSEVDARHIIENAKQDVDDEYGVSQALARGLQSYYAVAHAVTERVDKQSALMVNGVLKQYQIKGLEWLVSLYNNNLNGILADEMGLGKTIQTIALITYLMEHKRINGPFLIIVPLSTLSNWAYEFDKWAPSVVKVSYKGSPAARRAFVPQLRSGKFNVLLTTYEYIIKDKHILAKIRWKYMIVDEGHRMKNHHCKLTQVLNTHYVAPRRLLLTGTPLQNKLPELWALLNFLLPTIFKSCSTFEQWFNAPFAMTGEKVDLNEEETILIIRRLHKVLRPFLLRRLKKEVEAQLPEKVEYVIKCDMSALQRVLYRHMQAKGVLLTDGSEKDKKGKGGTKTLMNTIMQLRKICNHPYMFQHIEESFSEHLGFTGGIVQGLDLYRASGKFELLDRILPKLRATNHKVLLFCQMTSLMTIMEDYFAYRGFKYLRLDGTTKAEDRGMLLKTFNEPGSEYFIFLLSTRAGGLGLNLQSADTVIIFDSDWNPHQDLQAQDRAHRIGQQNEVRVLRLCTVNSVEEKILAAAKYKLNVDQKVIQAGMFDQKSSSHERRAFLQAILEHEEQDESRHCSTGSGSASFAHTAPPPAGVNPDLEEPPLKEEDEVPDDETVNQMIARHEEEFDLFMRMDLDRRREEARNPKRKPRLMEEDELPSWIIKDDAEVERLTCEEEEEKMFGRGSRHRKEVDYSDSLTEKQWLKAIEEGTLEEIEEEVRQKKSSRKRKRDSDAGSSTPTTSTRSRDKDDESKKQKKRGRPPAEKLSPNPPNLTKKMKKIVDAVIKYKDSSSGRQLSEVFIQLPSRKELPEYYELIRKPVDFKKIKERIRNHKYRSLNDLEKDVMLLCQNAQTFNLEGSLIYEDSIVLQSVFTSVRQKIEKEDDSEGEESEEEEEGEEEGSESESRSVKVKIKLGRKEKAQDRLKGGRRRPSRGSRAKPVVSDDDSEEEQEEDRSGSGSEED
Briefly: ATPase catalytic activity of BRG-1, ADP-Glo in vitro biochemical assay. The following applies: ATPase catalytic activity, 30 nM BRG-1, 400 μM ATP, read-out: BRG1 IP50 (μM)*.

T1 sequence (P51531 whole entry): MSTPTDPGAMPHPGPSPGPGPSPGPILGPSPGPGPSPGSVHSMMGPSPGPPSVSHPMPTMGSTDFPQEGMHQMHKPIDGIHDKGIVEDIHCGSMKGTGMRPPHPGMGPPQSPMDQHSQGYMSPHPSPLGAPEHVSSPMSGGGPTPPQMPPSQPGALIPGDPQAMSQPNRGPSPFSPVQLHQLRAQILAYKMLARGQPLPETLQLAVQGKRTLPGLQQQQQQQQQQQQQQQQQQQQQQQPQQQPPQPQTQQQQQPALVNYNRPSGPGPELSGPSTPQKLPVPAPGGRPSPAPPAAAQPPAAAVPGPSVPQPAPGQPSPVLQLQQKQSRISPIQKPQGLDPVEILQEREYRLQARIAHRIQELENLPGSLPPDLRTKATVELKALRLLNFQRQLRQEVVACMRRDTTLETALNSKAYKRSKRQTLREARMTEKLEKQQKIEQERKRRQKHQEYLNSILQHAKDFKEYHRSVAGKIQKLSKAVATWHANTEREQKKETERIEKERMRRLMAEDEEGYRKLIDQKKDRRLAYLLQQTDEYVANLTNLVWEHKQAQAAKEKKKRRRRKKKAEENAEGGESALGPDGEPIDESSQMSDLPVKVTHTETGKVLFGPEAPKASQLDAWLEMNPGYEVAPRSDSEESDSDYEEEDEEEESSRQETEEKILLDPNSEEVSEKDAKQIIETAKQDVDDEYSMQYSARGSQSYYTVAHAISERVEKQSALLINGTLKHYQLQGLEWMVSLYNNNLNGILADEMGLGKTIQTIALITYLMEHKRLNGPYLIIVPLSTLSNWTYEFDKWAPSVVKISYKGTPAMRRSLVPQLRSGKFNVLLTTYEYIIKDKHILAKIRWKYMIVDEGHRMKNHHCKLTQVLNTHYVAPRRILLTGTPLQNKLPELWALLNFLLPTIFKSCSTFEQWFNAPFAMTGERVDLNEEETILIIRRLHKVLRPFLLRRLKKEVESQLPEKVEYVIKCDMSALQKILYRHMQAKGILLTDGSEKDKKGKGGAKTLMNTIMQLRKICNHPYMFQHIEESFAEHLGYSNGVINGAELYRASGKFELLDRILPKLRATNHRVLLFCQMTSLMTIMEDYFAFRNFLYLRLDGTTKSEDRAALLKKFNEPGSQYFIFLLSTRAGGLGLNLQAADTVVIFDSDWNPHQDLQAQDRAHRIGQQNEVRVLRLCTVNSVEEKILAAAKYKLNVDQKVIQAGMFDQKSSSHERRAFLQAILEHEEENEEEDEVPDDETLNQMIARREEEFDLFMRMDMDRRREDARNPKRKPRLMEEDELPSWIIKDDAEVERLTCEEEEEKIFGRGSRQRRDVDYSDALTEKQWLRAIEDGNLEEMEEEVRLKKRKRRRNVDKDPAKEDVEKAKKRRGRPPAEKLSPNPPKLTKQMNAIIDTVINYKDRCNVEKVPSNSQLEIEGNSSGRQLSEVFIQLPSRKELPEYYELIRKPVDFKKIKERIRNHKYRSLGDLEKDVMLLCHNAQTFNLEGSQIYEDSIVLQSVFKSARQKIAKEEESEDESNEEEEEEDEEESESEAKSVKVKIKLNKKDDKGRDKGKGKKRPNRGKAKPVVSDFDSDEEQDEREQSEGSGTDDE

For the compound `CO[C@@H]1CCCN(c2cccc(-c3csc(NC(=O)CNC(=O)c4ccn(C5(C)COC5)c4)n3)n2)C1` [Compound 330], the IC50 at BRM and on BRG-1 was over 0.1 µM each time.

For `C[C@@H]1CN(c2cccc(-c3csc(NC(=O)CNC(=O)c4ccn(C(C)(C)C#N)c4)n3)n2)C[C@H](C)O1` [Compound 331], the IC50 at BRM and at BRG-1 was under 0.01 µM throughout.

As to `C[C@@H]1CN(c2cccc(-c3csc(NC(=O)CNC(=O)c4ccn(C5(C(F)(F)F)CC5)c4)n3)n2)C[C@H](C)O1` [Compound 332], the figures for the IC50 at BRM and on BRG-1 were over 0.01 µM and over 0.1 µM, respectively.

As to `C[C@@H]1CN(c2cccc(-c3csc(NC(=O)CNC(=O)c4ccn(C5(C)CC5)c4)n3)n2)C[C@H](C)O1` [Compound 333], the IC50 on BRM and on BRG-1 was under 0.01 µM each time.

On to `C[C@@H]1CCCN(c2cccc(-c3csc(NC(=O)CNC(=O)c4ccn(S(C)(=O)=O)c4)n3)n2)C1` [Compound 336], for which the IC50 on BRM and on BRG-1 was over 0.01 µM throughout.

`CC1(n2ccc(C(=O)NCC(=O)Nc3nc(-c4cccc(N5CCC(O)CC5)n4)cs3)c2)COC1` [Compound 337]: the IC50 at BRM and at BRG-1 was over 0.01 µM in each case.

As to `CS(=O)(=O)n1ccc(C(=O)NCC(=O)Nc2nc(-c3cccc(N4CCC(F)CC4)n3)cs2)c1` [Compound 339], the IC50 on BRM and at BRG-1 was over 0.01 µM in each case.

On to `C[C@H]1CCCN(c2cccc(-c3csc(NC(=O)CNC(=O)c4ccn(S(C)(=O)=O)c4)n3)n2)C1` [Compound 340], for which the IC50 on BRM and at BRG-1 was over 0.01 µM throughout.

For the compound `CC1(n2ccc(C(=O)NCC(=O)Nc3nc(-c4cccc(N5CCOCC5)n4)cs3)c2)COC1` [Compound 341], the IC50 was over 0.01 µM on BRM and over 0.1 µM on BRG-1.

Take `C[C@@H]1CN(c2cccc(-c3csc(NC(=O)CNC(=O)c4ccn(C5COC5)c4)n3)n2)C[C@H](C)O1` [Compound 343]: the IC50 on BRM is over 0.01 µM; at BRG-1 it was over 0.1 µM.

As for `C[C@@H]1CN(c2cccc(-c3csc(NC(=O)CNC(=O)c4ccn(C(C)(C)C)n4)n3)n2)C[C@H](C)O1` [Compound 344], the IC50 at BRM and at BRG-1 was over 0.01 µM in each case.

In the case of `COC[C@H](NC(=O)c1ccn(C(C)(C)C)n1)C(=O)Nc1nc(-c2ccc3ccn(C)c(=O)c3c2)cs1` [Compound 345], the IC50 on BRM and at BRG-1 was over 0.1 µM each time.

As for `CCn1ccc2ccc(-c3csc(NC(=O)[C@H](COC)NC(=O)c4ccn(C(C)(C)C)c4)n3)cc2c1=O` [Compound 347], the IC50 at BRM and on BRG-1 was over 0.01 µM each time.

On to `C[C@H](NC(=O)c1ccn(C2(C)COC2)c1)C(=O)Nc1nc(-c2ccc3ccn(C)c(=O)c3c2)cs1` [Compound 348], for which the IC50 on BRM and on BRG-1 was over 0.01 µM each time.

Consider `CS(=O)(=O)n1ccc(C(=O)NCC(=O)Nc2nc(-c3cccc(C#CC4COC4)c3)cs2)c1` [Compound 349], for which the IC50 on BRM and on BRG-1 was over 0.01 µM in each case.

In the case of `COC[C@H](NC(=O)c1ccn(S(C)(=O)=O)c1)C(=O)Nc1nc(-c2ccc3c(c2)C(=O)N(C)CC3)cs1` [Compound 351], the IC50 at BRM and at BRG-1 was over 0.01 µM each time.

Regarding `COC[C@H](NC(=O)c1ccn(S(C)(=O)=O)c1)C(=O)Nc1nc(-c2cccc(-c3cnn(C)n3)c2)cs1` [Compound 352], the IC50 at BRM and on BRG-1 was under 0.01 µM throughout.

As for `COC[C@H](NC(=O)c1ccn(S(C)(=O)=O)c1)C(=O)Nc1nc(-c2cccc(C3CC(C)(C)OC(C)(C)C3)c2)cs1` [Compound 353], the IC50 on BRM was over 0.01 µM; on BRG-1, over 0.1 µM.

With `COC[C@H](NC(=O)c1ccn(S(C)(=O)=O)c1)C(=O)Nc1nc(-c2cccc(C3=CC(C)(C)OC(C)(C)C3)c2)cs1` [Compound 354], the IC50 on BRM and at BRG-1 was over 0.01 µM in each case.

As to `C[C@H](NC(=O)c1ccn(S(C)(=O)=O)c1)C(=O)Nc1nc(-c2cccc(-c3cnn(C)n3)c2)cs1` [Compound 355], the IC50 on BRM and at BRG-1 was over 0.01 µM in each case.

For the compound `COC[C@H](NC(=O)c1ccn(S(C)(=O)=O)c1)C(=O)Nc1nc(-c2cccc(-c3cccc(C)n3)c2)cs1` [Compound 356], the IC50 on BRM and at BRG-1 was over 0.01 µM in each case.

As for `COC[C@H](NC(=O)c1ccn(S(C)(=O)=O)c1)C(=O)Nc1nc(-c2cccc(-c3ccnc(C)n3)c2)cs1` [Compound 357, N-[(1S)-1-(methoxymethyl)-2-[[4-[3-(2-methylpyrimidin-4-yl)phenyl]thiazol-2-yl]amino]-2-oxo-ethyl]-1-methylsulfonyl-pyrrole-3-carboxamide], the IC50 on BRM and at BRG-1 was under 0.01 µM in each case.

`COC[C@H](NC(=O)c1ccn(S(C)(=O)=O)c1)C(=O)Nc1nc(-c2cccc(-c3cc(C)nc(C)n3)c2)cs1` [Compound 358, N-[(1S)-2-[[4-[3-(2,6-dimethylpyrimidin-4-yl)phenyl]thiazol-2-yl]amino]-1-(methoxymethyl)-2-oxo-ethyl]-1-methylsulfonyl-pyrrole-3-carboxamide]: the IC50 at BRM and at BRG-1 was under 0.01 µM throughout.

Consider `COC[C@H](NC(=O)c1ccn(S(C)(=O)=O)c1)C(=O)Nc1nc(-c2cccc(-c3ccnc(C(F)F)c3)c2)cs1` [Compound 359], for which the IC50 on BRM and on BRG-1 was under 0.01 µM throughout.

Take `COC[C@H](NC(=O)c1ccn(S(C)(=O)=O)c1)C(=O)Nc1nc(-c2cccc(-c3cnn(C)c3)c2)cs1` [Compound 360]: the IC50 on BRM and at BRG-1 was over 0.01 µM in each case.

Regarding `CC1(C#Cc2cccc(-c3csc(NC(=O)CNC(=O)c4ccn(S(C)(=O)=O)c4)n3)c2)COC1` [Compound 361, N-(2-((4-(3-((3-methyloxetan-3-yl)ethynyl)phenyl)thiazol-2-yl)amino)-2-oxoethyl)-1-(methylsulfonyl)-1H-pyrrole-3-carboxamide], the IC50 on BRM and on BRG-1 was over 0.01 µM throughout.

Consider `COC(C)(C)C#Cc1cccc(-c2csc(NC(=O)CNC(=O)c3ccn(C(C)(C)C)c3)n2)n1` [Compound 362, 1-(tert-butyl)-N-(2-((4-(6-(3-methoxy-3-methylbut-1-yn-1-yl)pyridin-2-yl)thiazol-2-yl)amino)-2-oxoethyl)-1H-pyrrole-3-carboxamide], for which the IC50 on BRM and at BRG-1 was over 0.1 µM throughout.

With `COC(C)(C)C#Cc1cccc(-c2csc(NC(=O)CNC(=O)c3ccn(S(C)(=O)=O)c3)n2)c1` [Compound 363], the IC50 on BRM and on BRG-1 was over 0.01 µM each time.

For the compound `C[C@H](NC(=O)c1ccn(S(C)(=O)=O)c1)C(=O)Nc1nc(-c2cccc(N3CCC3)c2)cs1` [Compound 364], the IC50 at BRM and on BRG-1 was over 0.01 µM in each case.

On to `C[C@H](NC(=O)c1ccn(S(C)(=O)=O)c1)C(=O)Nc1nc(-c2cccc(N3CC(O)C3)c2)cs1` [Compound 365], for which the IC50 on BRM and at BRG-1 was over 0.01 µM in each case.

With `COC[C@H](NC(=O)c1ccn(S(C)(=O)=O)c1)C(=O)Nc1nc(-c2cccc(N3CCC3)c2)cs1` [Compound 366], the IC50 at BRM was under 0.01 µM; on BRG-1, over 0.01 µM.

`COC[C@H](NC(=O)c1ccn(S(C)(=O)=O)c1)C(=O)Nc1nc(-c2cccc(N3CC(OC)C3)c2)cs1` [Compound 367]: the IC50 at BRM and at BRG-1 was over 0.01 µM each time.

With `COC[C@H](NC(=O)c1ccn(S(C)(=O)=O)c1)C(=O)Nc1nc(-c2cccc(N3C[C@@H](C)O[C@@H](C)C3)c2F)cs1` [Compound 368], the IC50 on BRM and on BRG-1 was over 0.01 µM in each case.

For `COC[C@H](NC(=O)c1ccn(S(C)(=O)=O)c1)C(=O)Nc1nc(-c2cccc(N3CCC(O)CC3)c2)cs1` [Compound 369], the results for the IC50 on BRM and on BRG-1 were under 0.01 µM and over 0.01 µM, respectively.

`C[C@H](NC(=O)c1ccn(S(C)(=O)=O)c1)C(=O)Nc1nc(-c2cccc(N3CCC(O)CC3)c2)cs1` [Compound 370]: the IC50 on BRM and at BRG-1 was over 0.01 µM in each case.

On to `COC[C@H](NC(=O)c1ccn(S(C)(=O)=O)c1)C(=O)Nc1nc(-c2cccc(N3C[C@@H](C)O[C@@H](C)C3)c2)cs1` [Compound 371], for which the IC50 at BRM and on BRG-1 was under 0.01 µM each time.

For `COC[C@H](NC(=O)c1ccn(S(C)(=O)=O)c1)C(=O)Nc1nc(-c2cccc(N3CCO[C@H](C)C3)c2)cs1` [Compound 372], the IC50 at BRM is under 0.01 µM; at BRG-1 it was over 0.01 µM.

In the case of `COC[C@H](NC(=O)c1ccn(S(C)(=O)=O)c1)C(=O)Nc1nc(-c2cccc(N3CCO[C@@H](C)C3)c2)cs1` [Compound 373], the IC50 on BRM was under 0.01 µM; on BRG-1, over 0.01 µM.

For `C[C@@H]1CN(c2cccc(-c3cccc(NC(=O)CNC(=O)c4ccn(S(C)(=O)=O)c4)n3)c2)C[C@H](C)O1` [Compound 374, N-[2-[[6-[3-[(cis)-2,6-dimethylmorpholin-4-yl]phenyl]-2-pyridyl]amino]-2-oxo-ethyl]-1-methylsulfonyl-pyrrole-3-carboxamide], the IC50 on BRM and on BRG-1 was over 0.01 µM each time.

For `C[C@@H]1CN(c2cccc(-c3csc(NC(=O)[C@H](CO)NC(=O)c4ccn(C5(C)COC5)c4)n3)n2)C[C@H](C)O1` [Compound 375], the IC50 at BRM and at BRG-1 was over 0.01 µM throughout.

Regarding `COC[C@H](NC(=O)c1ccn(C2(C)COC2)c1)C(=O)Nc1nc(-c2ccc(F)c(N3C[C@@H](C)O[C@@H](C)C3)n2)cs1` [Compound 376], the IC50 at BRM and at BRG-1 was over 0.01 µM throughout.

For the compound `COC[C@H](NC(=O)c1ccn(S(C)(=O)=O)c1)C(=O)Nc1nc(-c2ccc(F)c(N3C[C@@H](C)O[C@@H](C)C3)n2)cs1` [Compound 377], the IC50 at BRM was under 0.01 µM; at BRG-1, over 0.01 µM.

For the compound `C[C@@H]1CN(c2nc(-c3csc(NC(=O)CNC(=O)c4ccn(C5(C)COC5)c4)n3)ccc2F)C[C@H](C)O1` [Compound 378], the IC50 on BRM was under 0.01 µM; at BRG-1, over 0.01 µM.
